Measurements reported in publication PMC9977398, “Next-generation membrane-active glycopeptide antibiotics that also inhibit bacterial cell division” (Chemical Science, 2023).

Tests used:
MDCK cells = assay type: cell-based; conditions: 24 h, Alamar blue
Protocol: acid group of vancomycin to yield the compounds 1-10. All the derivatives of vancomycin were purified by reverse phase HPLC to about 90 % purity with 65-75 % yield and characterized by HR-MS and 1H-NMR.
Figure S1. Cytotoxicity of VanQAmC10 against MDCK cells. The CC50 (defined as the concentration at which the viability of compound treated cells reduced to 50%) was greater […]
(1 picture or pasted object on this page, not shown here)
50 μL of serially diluted compound was added into 96 well microtiter plates. Freshly drawn, heparanized human blood was centrifuged down to obtain the erythrocytes and re-suspended to 5 vol % in PBS (pH 7.4). […] 100 μL of the supernatant from each well were transferred into fresh microtiter plates, and A540 was measured.
(§1) % haemolysis = (A - A0)/(Atotal -A0) × 100, where A is the absorbance of the test well, A 0 the absorbance of the negative controls (without compound), and A total the absorbance of 100 % hemolysis wells (with Triton X -100), all at 540 nm. […]
2 h post incubation with dye, the absorbance was measured at 570 nm using 600 nm as […]
The bactericidal activity of the compounds was evaluated with the time kill kinetics assay.
MRSA ATCC 33591 cells were cultured in nutrient media at 37°C for 6 h. […] The bacterial colonies were counted and results are represented in logarithmic scale, i.e. log10 (CFU/mL). […]

[1] = test system: VRE 51559 (vancomycin-resistant E. faecium, VanA phenotype, ATCC 51559); set-up: method as in PMID 32195571; conditions: previously reported; cited from earlier work
[2] = test system: VRSA 12 (vancomycin-resistant S. aureus); set-up: method as in PMID 32195571; conditions: previously reported; cited from earlier work
[3] = test system: VRSA 4 (vancomycin-resistant S. aureus); set-up: method as in PMID 32195571; conditions: previously reported; cited from earlier work
human erythrocytes = assay: Haemolysis assay; assay type: cell-based; conditions: human, 1 h, pH 7.4
Protocol: To select the lead compounds, the toxicity of 1–10 was tested against human erythrocytes as their hemolytic activity (HC50). The HC50 is determined as the concentration at which 50% of the compound treated cells are lysed. […] The HC50 for compounds 6–8 was also greater than 500 μM. […] Based on the in vitro activity and hemolysis studies, VanQbiph (4) from the aryl-substituted compounds and VanQAmC10 (8) from the alkyl-chain substituted compounds were selected for further investigations. […] VanQAmC10 (8) was additionally non-toxic to RAW 264.7 cells up to 40 μM and was therefore taken forward in vivo investigation.[18]
50 μL of serially diluted compound was added into 96 well microtiter plates. Freshly drawn, heparanized human blood was centrifuged down to obtain the erythrocytes and re-suspended to 5 vol % in PBS (pH 7.4). 150 μL of the erythrocyte suspension was added to the serially diluted compounds (from 500 µM to 2 µM). One set without compound and other with 50 μL of 1 vol % solution of Triton X-100 were kept as controls. The plates were incubated at 37 °C for 1 h followed by centrifugation at 3,500 rpm for 5 min. 100 μL of the supernatant from each well were transferred into fresh microtiter plates, and A540 was measured.
as §1

SMILES	CC50 (MDCK cells) [µM]	Minimum inhibitory concentration, VRE 51559 [1] [µM]	Minimum inhibitory concentration, VRSA 12 [2] [µM]	Minimum inhibitory concentration, VRSA 4 [3] [µM]	HC50 (human erythrocytes) [µM]
CCCCCCCCCCNC(=O)C[N+](C)(C)CCCNC(=O)C1NC(=O)C2NC(=O)C(NC(=O)C3NC(=O)C(CC(N)=O)NC(=O)C(NC(=O)C(CC(C)C)NC)C(O)c4ccc(c(Cl)c4)Oc4cc3cc(c4OC3OC(CO)C(O)C(O)C3OC3CC(C)(N)C(O)C(C)O3)Oc3ccc(cc3Cl)C2O)c2ccc(O)c(c2)-c2c(O)cc(O)cc21 (centres unmarked) [VanQAmC10 (8)]	> 64	4	1.6	1.6 to 3.1	–
CNC(CC(C)C)C(=O)NC1C(=O)NC(CC(N)=O)C(=O)NC2C(=O)NC3C(=O)NC(C(=O)NC(C(=O)NCCC[N+](C)(C)Cc4ccc(-c5ccccc5)cc4)c4cc(O)cc(O)c4-c4cc3ccc4O)C(O)c3ccc(c(Cl)c3)Oc3cc2cc(c3OC2OC(CO)C(O)C(O)C2OC2CC(C)(N)C(O)C(C)O2)Oc2ccc(cc2Cl)C1O (centres unmarked) [VanQbiph (4)]	–	–	–	–	>500
